Measurements taken from publication PMC4960534, “Ligand binding to an Allergenic Lipid Transfer Protein Enhances Conformational Flexibility resulting in an Increase in Susceptibility to Gastroduodenal Proteolysis” (Scientific Reports, 2016).
Where two headings read alike, the source gives them in different places.

Experiments:
wheat LTP [1] = biological target: T1, wheat LTP (Triticum aestivum, UniProt P24296); experiment: CPA displacement assay (competitive, CPA as tracer); assay type: binding; conditions: for Ki: Cheng-Prusoff; for ΔG Wheat: ΔG = -RTln(Ki)
T1 construct: Intact protein (residues 1–90); from tissue; host or cells: wheat bran
T1 sequence (P24296 24-113): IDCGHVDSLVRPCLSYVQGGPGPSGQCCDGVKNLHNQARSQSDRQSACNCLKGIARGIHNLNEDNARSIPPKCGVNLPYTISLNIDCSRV
Description: (§1) Ligand binding was assessed using a fluorescence assay based on cis-parinaric acid originally described by Cooper et al.[22]. Fluorescence intensity was measured at 25 °C with a LS55 Luminescence Spectrometer (Perkin Elmer, Cambridge, UK) using a […] slit width for both excitation (λ = 320 nm) and emission (λ = 420 nm) and the measurement taken for no longer than 1.5–2s. CPA (3 mM in ethanol) was titrated by 1 μL injections into 1 mL of LTP solutions (5 μM in 50 mM phosphate buffer pH 7.5) in a stepwise manner. Binding curves were fitted with GraphPad Prism using the rectangular hyperbolic function of Hill’s equation. For non-fluorescent ligands, a competitive assay was developed using CPA as a tracer ligand. CPA concentrations close to the calculated Kd of each LTP[49][50] (at either 1 or 0.5 μM CPA for peach LTP and 2 or 1 μM CPA for wheat LTP in 50 mM phosphate buffer pH 7.5 or pH 2.5, 150 mM NaCl, respectively) were used. After equilibrating for 2–3 min with gentle mixing, the competing non-fluorescent ligands (1 mM of palmitic acid, 16-OH palmitic acid, 12-OH stearic acid, linoleic acid or 1-palmitoyl–sn–glycerol–3–phosphatadyl choline (PC) ethanol) were titrated into the LTP solution in 1 μL aliquots. The resulting data were fitted using a sigmoidal curve-fitting logarithm in GraphPad Prism from which the concentration able to displace 50% of the CPA (IC50) was calculated. Ki values were calculated according to Cheng-Prusoff equation[51].

peach LTP [2] = biological target: T2, peach LTP (Prunus persica, UniProt P81402, A9S/H76S); experiment: as above; assay type: binding; conditions: for ΔG Peach: ΔG = -RTln(Ki)
T2 construct: Peach LTP was purified from the skin of peach fruits; from tissue; host or cells: skin of peach fruits
Description: as §1

wheat LTP [3] = biological target: T3, wheat LTP (Triticum aestivum, UniProt P24296); experiment: CPA fluorescence titration, direct binding
T3 construct: Intact protein (residues 1–90); from tissue; host or cells: wheat bran
T3 sequence (P24296 24-90 limits assumed): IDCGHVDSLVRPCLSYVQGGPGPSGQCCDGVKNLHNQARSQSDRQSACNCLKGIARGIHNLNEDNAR
Description: as §1

peach LTP [4] = biological target: T4, peach LTP (Prunus persica, UniProt P81402); experiment: CPA fluorescence titration, direct binding
T4 construct: Peach LTP was purified from the skin of peach fruits; from tissue; host or cells: skin of peach fruits
T4 sequence (P81402 1-91): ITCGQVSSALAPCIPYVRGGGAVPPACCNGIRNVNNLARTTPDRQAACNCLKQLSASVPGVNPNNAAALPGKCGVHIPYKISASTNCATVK
Description: as §1

[5] = 50 mM phosphate, pH 7.5, displacement of 2 μM CPA
[6] = 150 mM NaCl, pH 2.5, displacement of 1 μM CPA
[7] = 50 mM phosphate, pH 7.5, Cheng-Prusoff, read-out: Ki Peach
[8] = 50 mM phosphate, pH 7.5, displacement of 1 μM CPA, read-out: IC50 Peach
[9] = 150 mM NaCl, pH 2.5, Cheng-Prusoff, read-out: Ki Peach
[10] = 150 mM NaCl, pH 2.5, displacement of 0.5 μM CPA, read-out: IC50 Peach

T2 sequence (P81402 whole entry A9S/H76S): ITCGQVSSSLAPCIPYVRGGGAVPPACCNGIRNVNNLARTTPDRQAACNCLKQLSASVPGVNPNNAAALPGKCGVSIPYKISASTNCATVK

## 1-palmitoyl–sn–glycerol–3–phosphatadyl choline [Phosphatidyl choline]
Wheat LTP [1]; 50 mM phosphate, pH 7.5
  Ki: 4600 ± 100 nM
  ΔG Wheat: 7.27 kcal/mol
Wheat LTP [1]; [5]
  IC50: 6700 ± 100 nM
Wheat LTP [1]; 150 mM NaCl, pH 2.5
  Ki: 2800 ± 100 nM
  ΔG Wheat: 7.55 kcal/mol
Wheat LTP [1]; [6]
  IC50: 5300 ± 100 nM
Peach LTP [2]; [7]
  Ki: 1100 ± 20 nM
Peach LTP [2]; [8]
  IC50: 2200 ± 30 nM
Peach LTP [2]; 50 mM phosphate, pH 7.5
  ΔG Peach: 8.13 kcal/mol
Peach LTP [2]; [9]
  Ki: 1000 ± 100 nM
Peach LTP [2]; [10]
  IC50: 1800 ± 100 nM
Peach LTP [2]; 150 mM NaCl, pH 2.5
  ΔG Peach: 8.17 kcal/mol

## CC\C=C/C=C/C=C/C=C\CCCCCCCC(=O)O [CPA, cis-parinaric acid]
Wheat LTP [3]; 50 mM phosphate, pH 7.5
  Kd: 4500 ± 200 nM
Wheat LTP [3]; 150 mM NaCl, pH 2.5
  Kd: 1200 ± 100 nM
Peach LTP [4]; 50 mM phosphate, pH 7.5
  Kd: 1000 ± 20 nM
Peach LTP [4]; 150 mM NaCl, pH 2.5
  Kd: 600 ± 100 nM

## CCCCC/C=C\C/C=C\CCCCCCCC(=O)O [Linoleic acid, linoleic acid]
Wheat LTP [1]; 50 mM phosphate, pH 7.5
  Ki: 5300 ± 20 nM
  ΔG Wheat: 7.19 kcal/mol
Wheat LTP [1]; [5]
  IC50: 7600 ± 30 nM
Peach LTP [2]
  IC50: 1600 ± 100 nM
  Ki: 800 ± 40 nM
Peach LTP [2]; 50 mM phosphate, pH 7.5
  ΔG Peach: 8.29 kcal/mol

## CCCCCCCCCCCCCCCC(=O)O [Palmitic acid, palmitic acid]
Wheat LTP [1]; 50 mM phosphate, pH 7.5
  Ki: 3600 ± 100 nM
  ΔG Wheat: 7.41 kcal/mol
Wheat LTP [1]; [5]
  IC50: 5200 ± 100 nM
Peach LTP [2]
  IC50: 1400 ± 100 nM
  Ki: 700 ± 30 nM
Peach LTP [2]; 50 mM phosphate, pH 7.5
  ΔG Peach: 8.39 kcal/mol

## CCCCCCCCCCCCCCCC(=O)OC[C@@H](O)COP(=O)([O-])OCC[N+](C)(C)C [Phosphatidyl choline (vesicular), 1-palmitoyl–sn–glycerol–3–phosphatadyl choline]
Wheat LTP [1]; 50 mM phosphate, pH 7.5
  Ki: 3900 ± 100 nM
  ΔG Wheat: 7.37 kcal/mol
Wheat LTP [1]; [5]
  IC50: 5600 ± 100 nM
Wheat LTP [1]; 150 mM NaCl, pH 2.5
  Ki: 3600 ± 100 nM
  ΔG Wheat: 7.41 kcal/mol
Wheat LTP [1]; [6]
  IC50: 6800 ± 200 nM
Peach LTP [2]; [7]
  Ki: 700 ± 40 nM
Peach LTP [2]; [8]
  IC50: 1500 ± 100 nM
Peach LTP [2]; 50 mM phosphate, pH 7.5
  ΔG Peach: 8.35 kcal/mol
Peach LTP [2]; [9]
  Ki: 800 ± 100 nM
Peach LTP [2]; [10]
  IC50: 1500 ± 100 nM
Peach LTP [2]; 150 mM NaCl, pH 2.5
  ΔG Peach: 8.29 kcal/mol
